# “Also recorded” adds a separate entry of the source.
# What was measured:
# Abca1 [1] = assay: qPCR of LXR target gene Abca1 in LLC tumor cells; assay type: cell-based, murine
# Text: (§1) We have performed a set of experiments to evaluate whether some LXR modulators, particularly PFM009 (13) and PFM018 (25) influence the growth of the murine Lewis lung carcinoma cells (LLC) in vitro and in vivo.
# hLXRα = target: T1, hLXRα (Homo sapiens, UniProt Q13133); assay: luciferase assay with GAL-4 chimeric hLXRα receptor in human embryonic kidney 293 cells; assay type: cell-based
# T1 sequence (Q13133 209-447 limits assumed): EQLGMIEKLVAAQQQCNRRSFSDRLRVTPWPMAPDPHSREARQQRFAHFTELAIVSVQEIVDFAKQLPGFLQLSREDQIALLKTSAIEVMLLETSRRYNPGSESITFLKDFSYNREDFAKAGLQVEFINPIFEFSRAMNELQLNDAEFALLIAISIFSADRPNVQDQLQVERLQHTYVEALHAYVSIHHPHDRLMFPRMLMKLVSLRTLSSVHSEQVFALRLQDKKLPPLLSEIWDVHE
# Description: (§2) All the synthesized compounds were first tested for their ability to activate LXRs by using luciferase assays with GAL-4 chimeric receptors. These were performed by co-transfecting plasmids encoding hLXRα- and β-binding domains fused to GAL-4, with the respective responsive element conjugated with the luciferase reporter gene into the human embryonic kidney 293 cells.
# (§3) Cell Culture and Co-transfection Assays. Human embryonic Kidney 293 cells (American Type Culture Collection) were cultured in Dulbecco's Modified Eagle's medium containing 10% of fetal bovine serum at 37° C. in humidified atmosphere of 5% CO2. HEK293 cells (4×10^4 cells per well) were transiently transfected in 48 well plate with the reporter plasmids pMH100X4-TK-luc (100 ng/well), Renilla (22 ng/well) together with 100 ng/well of pCMX-Gal4-RXR, pCMX-Gal4-PPAR-γ, pCMX-Gal4-PXR, pFA-CMV-FXR pCMX-Gal4-LXR-α or pCMX-Gal4-LXR-β plasmids using X-tremeGENE 9 DNA Transfection Reagent (Roche). Six hours after transfection, the cells were treated with the appropriate compound for 24 hours. Luciferase activities were analyzed by luciferase Dual Reporter Assay Systems (Promega) according to the manufacturer's protocol. GAL4-LXRs, GAL4-PPAR-γ, GAL4-RXR and TK-MHC100-luc plasmids were described in Villablanca et al.49 GAL4-PXR was a kind gift of Dr. Enrique Sainz (The Scripps Research Institute, La Jolla, USA). GAL4-FXR was a kind gift of Dr. Daniel Merk (Goethe-University Frankfurt am Main). The results obtained by luciferase assays and reported in Table 1 are from three to five independent experiments.
# (§4) Statistical analysis. Data are expressed as mean±SEM and were analyzed for significance by ANOVA with Dunnet's multiple comparison tests. The analysis was performed with Prism software. Data in Table 1 are expressed as EC50±SD. In particular, the standard deviations were obtained by calculating the mean of the EC50 of each experiment (three to five independent experiments). The efficacy (%) of the compounds was calculated as the percentage of the compound effect, in terms of LXRα or β activation, versus 8 μM of 22R—HC±SD. The analyses were performed with Prism software.
# SREBP1c [2] = assay: qPCR of SREBP1c expression in PMA-differentiated U937 cells; assay type: cell-based, human; conditions: U937 differentiated with PMA 72 h; 10 μM, 6 hours
# Description: (§5) U937 cells differentiated with PMA for 72 hours were treated with T0901317 (10 μM), 22R—HC (3) or with the tested compound (10 μM). […] (n=3/group). *p<0.05, **p<0.01, ***p<0.001.
# (§6) LXR agonists induce the expression of target genes, which are involved in cholesterol homeostasis, particularly in the reverse cholesterol transport pathway.43 Indeed, LXR agonists induce the expression of ABCA1 both in macrophages and in many tissues of the periphery such as the intestine.44 Moreover, ABCA1 regulates cholesterol efflux to APOAI acceptors.45 In the liver, LXR activation promotes the biosynthesis of fatty acids, a process also termed as de novo lipogenesis by inducing the expression of the master regulator of hepatic lipogenesis sterol-regulatory element-binding protein 1C (SREBP-1c), as well as several downstream genes in the SREBP-1c pathway, including steroyl CoA desaturase 1 (SCD1) and fatty acid synthase (FASN).43 Therefore, it was investigated, by quantitative PCR (qPCR), the expression of ABCA1, SREBP1c, FASN, and SCD1, by using RNA from monocytic U937 cells (FIG. 3) and from hepatic HepG2 cells (FIG. 4) stimulated with our compounds, the non-steroidal agonist T0901317 or the endogenous ligand 22R—HC (3) as positive controls. […] Then, the induction of genes involved in the lipogenesis using the hepatic cell line HepG2. 43,22 was evaluated. […] Over the time, indeed, substantial efforts have been dedicated to the identification of LXR ligands able to turning on ABC transporter genes, without affecting lipogenic genes levels. This task is still one of the major challenge to the discovery of a clinically useful LXR modulator for atherosclerosis.
# (§7) Quantitative Real-Time-PCR. U937 cell line was differentiated in foam macrophages with phorbol 12-myristate 13-acetate (PMA) 10 ng/ml (Sigma) for 72 hours at 37° C. in […] at the concentration of 3×10^6 cells in 10 ml RPMI 10% FBS. At day 3 nuclear receptor ligands were added for 6 hours. HepG2 cells were treated with the ligands as described by Quinet et al.22 Total RNA was purified by TRIZOL (Invitrogen, Carlsbad, Calif., USA). Reverse transcription was performed incubating 2 μg of total RNA 1 hour at 42° C. with MLV-reverse transcriptase (Promega). Quantitative PCR was performed using Sybr Green Master Mix (Applied Biosystems) and real-time PCR (Viia 7 Real Time PCR System, Applied Biosystems). All PCR reactions were done in triplicate. The comparative Ct method was used to quantify transcripts that were normalized for human GAPDH. the following primer pairs were used: […]
# SREBP1c [3] = assay: qPCR of SREBP1c expression in HepG2 cells; assay type: cell-based, human; conditions: 10 μM
# Description: HepG2 cells were treated with T0901317 (10 μM), 22R—HC (3) (10 μM) or with the tested compound (10 μM). […] (n=3/group). *p<0.05, **p<0.01, ***p<0.001.
# LXR agonists induce the expression of target genes, which are involved in cholesterol homeostasis, particularly in the reverse cholesterol transport pathway.43 Indeed, LXR agonists induce the expression of ABCA1 both in macrophages and in many tissues of the periphery such as the intestine.44 Moreover, ABCA1 regulates cholesterol efflux to APOAI acceptors.45 In the liver, LXR activation promotes the biosynthesis of fatty acids, a process also termed as de novo lipogenesis by inducing the expression of the master regulator of hepatic lipogenesis sterol-regulatory element-binding protein 1C (SREBP-1c), as well as several downstream genes in the SREBP-1c pathway, including steroyl CoA desaturase 1 (SCD1) and fatty acid synthase (FASN).43 Therefore, it was investigated, by quantitative PCR (qPCR), the expression of ABCA1, SREBP1c, FASN, and SCD1, by using RNA from monocytic U937 cells (FIG. 3) and from hepatic HepG2 cells (FIG. 4) stimulated with our compounds, the non-steroidal agonist T0901317 or the endogenous ligand 22R—HC (3) as positive controls. […] 43,22 was evaluated. […]
# Quantitative Real-Time-PCR. […] The comparative Ct method was used to quantify transcripts that were normalized for human GAPDH. the following primer pairs were used: […]
# TNFα = assay: qPCR of TNFα expression in differentiated U937 cells treated with LPS; assay type: cell-based, human; conditions: differentiated U937, 6 hours, 10 μM in combination with LPS (100 ng/ml)
# Description: U937 cells differentiated with PMA for 72 hours were treated with LPS (100 ng/ml) in combination with T0901317 (10 μM) or with the title compounds (10 μM). […] (n=3/group). *p<0.05, **p<0.01, ***p<0.001.
# as §7
# LLC tumor = LLC tumor growth in vivo in C57BL/6 mice; conditions: 1×10^6 LLC cells subcutaneously, 30 mg/Kg/day for five consecutive days from day six
# Description: Then, we tested whether these compounds could influence LLC tumor growth in vivo. To do that, C57BL/6 mice were challenged with 1×10^6 LLC tumor cells subcutaneously. Six days later, tumor-bearing mice were treated with PFM009 or PFM018 (30 mg/Kg/day) for five consecutive days and then evaluated for tumor growth.
# SCD1 = assay: qPCR of SCD1 expression in PMA-differentiated U937 cells; assay type: cell-based, human; conditions: U937 differentiated with PMA 72 h; 10 μM, 6 hours
# Description: as §5, §6, §7
# hLXRβ = target: T2, hLXRβ (Homo sapiens, UniProt P55055); assay: luciferase assay with GAL-4 chimeric hLXRβ receptor in human embryonic kidney 293 cells; assay type: cell-based
# T2 sequence (P55055 222-460 limits assumed): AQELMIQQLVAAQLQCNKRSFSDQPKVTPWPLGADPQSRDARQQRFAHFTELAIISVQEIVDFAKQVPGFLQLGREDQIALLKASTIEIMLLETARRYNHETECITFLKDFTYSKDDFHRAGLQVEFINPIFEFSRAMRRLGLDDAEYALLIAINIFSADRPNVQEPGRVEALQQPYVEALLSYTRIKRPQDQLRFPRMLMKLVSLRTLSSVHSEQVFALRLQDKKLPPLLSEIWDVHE
# Description: as §2, §3, §4
# [4] = system: murine Lewis lung carcinoma cells (LLC); assay: growth of LLC tumor cells in vitro; assay type: cell-based; conditions: 96 hours, 10 μM
# Text: as §1
# ABCA1 [5] = assay: qPCR of ABCA1 expression in PMA-differentiated U937 cells; assay type: cell-based, human; conditions: U937 differentiated with PMA 72 h; 10 μM, 6 hours
# Description: as §5, §6, §7
# hFXR = assay: luciferase assay GAL4-hFXR in human embryonic kidney 293 cells; assay type: cell-based; conditions: compounds at 10 μM
# Description: Human embryonic kidney 293 cells were co-transfected with GAL4-hRXR (A), GAL4-hPPARγ (B), GAL4-hPXR (C) and GAL4-hFXR (D) expression plasmids together with GAL4 responsive element pMHC100X4-TK-luc and Renilla plasmids. Cells were incubated with vehicle (DMSO), PFMs at the concentration of 10 μM, and the nuclear receptor specific ligands 9cis retinoic acid (100 nM) (A), Rosiglitazone (RSG 100 nM) (B), T0901317 (100 nM) (C) and GW4064 (100 nM) (D) for six hours. The values represent mean±S.D. RLA, relative luciferase activity.
# The selectivity of our compounds within the nuclear receptor superfamily was also evaluated by luciferase assays using GAL4-RXR, -PPARγ, -PXR and -FXR plasmids.
# Cell Culture and Co-transfection Assays. Human embryonic Kidney 293 cells (American Type Culture Collection) were cultured in Dulbecco's Modified Eagle's medium containing 10% of fetal bovine serum at 37° C. in humidified atmosphere of 5% CO2. […] Luciferase activities were analyzed by luciferase Dual Reporter Assay Systems (Promega) according to the manufacturer's protocol. […]
Structure (SMILES),expression of the LXR target gene Abca1 (Abca1 [1]),"EC50 (hLXRα; GAL4-hLXRα luciferase, HEK293, dose-response 32-1 μM, mean of three-five independent experiments, read-out: LXRα EC50 (μM) ± SD) [µM]","Emax (hLXRα; HEK293, 24 h, read-out: LXRα Efficacy (%) ± SD) [%]","LXR isoform selectivity profile (hLXRα; LXRα versus LXRβ, GAL4 luciferase assays)",SREBP-1c up-regulation (SREBP1c [2]),SREBP-1c up-regulation (SREBP1c [3]),inhibition of TNFα expression (TNFα),LLC tumor growth in vivo (LLC tumor),SCD1 expression (SCD1),"EC50 (hLXRβ; GAL4-hLXRβ luciferase, HEK293, dose-response 32-1 μM, mean of three-five independent experiments, read-out: LXRβ EC50 (μM) ± SD) [µM]","Emax (hLXRβ; HEK293, 24 h, read-out: LXRβ Efficacy (%) ± SD, % of compound effect versus 8 μM of 22R-HC) [%]",LLC tumor growth in vitro [4],ABCA1 expression (ABCA1 [5]),FXR activation (hFXR)
"CC[C@@H](C(C)C)[C@H]1O[C@@H]1[C@@H](C)[C@H]1CC[C@H]2[C@@H]3CC=C4C[C@@H](O)CC[C@]4(C)[C@H]3CC[C@]12C [Compound 13, (22R,23R)-22,23-Epoxystigmast-5-ene-3β-ol]",induced the expression of the LXR target gene Abca1,2.09 ± 0.57,489 ± 89.1,non-selective and poorly preferential LXRα agonists; also recorded: non-selective ligands; also recorded: non-selective LXR agonists,poor activators of SREBP1c and SCD1,significant up-regulation of SREBP-1c,the most active,significant control of LLC tumor growth,poor activators of SREBP1c and SCD1,3.79 ± 0.82,142 ± 16.8,not able to alter LLC tumor growth in vitro,strong induction of ABCA1 expression,–
"CC[C@H](C[C@@H](O)[C@@H](C)[C@H]1CC[C@H]2[C@@H]3CC=C4C[C@@H](O)CC[C@]4(C)[C@H]3CC[C@]12C)C(C)C [Compound 20, (22R)-3β-stigmast-5-ene-3,22-diol]",–,–,–,–,poor activators of SREBP1c and SCD1,–,–,–,poor activators of SREBP1c and SCD1,–,–,–,strong induction of ABCA1 expression,strong FXR activation

# Source: US20200157135A1, “SIDE-CHAIN MODIFIED ERGOSTEROL AND STIGMASTEROL DERIVATIVES AS LIVER X RECEPTOR MODULATORS” (Ospedale San Raffaele srl, priority 2017, published 2020)
